The values below come from US20230416228A1 (Forkhead Biotherapeutics, Inc., priority 2020, published 2023).

T1 sequence (Q12778 whole entry T24A/S256A/S319A): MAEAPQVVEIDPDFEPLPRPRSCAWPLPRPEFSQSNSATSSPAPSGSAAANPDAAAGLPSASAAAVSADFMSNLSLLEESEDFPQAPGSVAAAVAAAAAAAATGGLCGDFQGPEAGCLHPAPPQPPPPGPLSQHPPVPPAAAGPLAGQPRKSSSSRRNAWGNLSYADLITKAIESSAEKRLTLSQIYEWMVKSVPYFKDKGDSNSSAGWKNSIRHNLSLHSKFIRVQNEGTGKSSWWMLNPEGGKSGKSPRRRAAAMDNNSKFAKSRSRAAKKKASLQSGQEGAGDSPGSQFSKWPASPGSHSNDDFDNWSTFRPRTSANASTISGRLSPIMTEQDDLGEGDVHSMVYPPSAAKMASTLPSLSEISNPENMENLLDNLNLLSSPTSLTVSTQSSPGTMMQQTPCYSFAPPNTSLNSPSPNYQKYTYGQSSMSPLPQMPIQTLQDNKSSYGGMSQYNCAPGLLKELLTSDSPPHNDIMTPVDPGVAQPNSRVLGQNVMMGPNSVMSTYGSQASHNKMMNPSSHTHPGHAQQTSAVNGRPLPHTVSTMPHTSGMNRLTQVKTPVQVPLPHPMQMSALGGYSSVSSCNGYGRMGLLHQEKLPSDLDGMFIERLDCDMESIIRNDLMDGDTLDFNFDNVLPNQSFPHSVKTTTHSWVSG

The test concerns the target T1, human FOXO1 (constitutively active form Thr24Ala, Ser256Ala, Ser319Ala) (Homo sapiens, UniProt Q12778, S256A/S319A/T24A).
T1 construct: expressed in transfected cells; host or cells: HEK293 cells transfected with pcDNA3.1 plasmid
The test can be described thus: FOXO1 inhibitor activity assay: cell-based transcriptional (luciferase) reporter assay in HEK293 cells. The settings on record: HEK293 cells transfected with insulin response element firefly luciferase reporter, FOXO1 and Renilla luciferase; 10-point dose response 50 μM to 2.5 nM; 24 hours. The method, then:
The inhibitory activities of compounds on FOXO1 were determined by a cell-based transcriptional reporter assay. HEK293 cells were plated onto either 384-well poly-D-lysine coated plates (at 7500 cells per well) or 96-well plates (at 20000 cells per well) in low glucose Eagle's Minimum Essential Medium (EMEM) containing 1% fetal bovine serum, and incubated overnight at 37° C. and 5% CO2. […] Duplicate wells were included for each treatment condition. Cells were incubated for 24 hours at 37° C. and 5% CO2. Luciferase activities in each well were measured using Dual-Glog Luciferase Assay System (Promega) according to manufacturer's protocol and an Envision plate reader suitable for luminescence detection. Firefly luciferase activity was divided by Renilla luciferase activity to calculate a ratio for each well. The ratio in wells containing cells transfected with all 3 plasmids listed above and receiving only DMSO without compound addition was set to 100%. The ratio in wells containing cells transfected with plasmid (1), plasmid (3), and pcDNA3.1 containing the open reading frame of red fluorescent protein (instead of human FOXO1) and treated with DMSO was set to 0%. The ratio in each well receiving compound treatment was normalized and expressed as a percentage. Data were fit by 4-parameter logistic regression to determine IC50 and maximal inhibition values. Each compound was tested in a minimum of 2 independent experiments.
What is called IC50 is the point on the concentration scale where inhibition reaches its midpoint. Read a low IC50 as greater potency. Compound `Cn1nc(NC(=O)c2ccc(OCCO)c(Cl)c2)cc1-c1nc2ccccc2[nH]1` [Compound A-202, N-[5-(1H-benzimidazol-2-yl)-1-methyl-pyrazol-3-yl]-3-chloro-4-(2-hydroxyethoxy)benzamide] showed an IC50 of less than 100 nM.

Compound `COC1CN(c2ccc(C(=O)Nc3cc(-c4nc5cc(F)ccc5[nH]4)[nH]n3)cn2)C1` [Compound A-132, N-[5-(5-fluoro-1H-benzimidazol-2-yl)-1H-pyrazol-3-yl]-6-(3-methoxy-azetidin-1-yl)pyridine-3-carboxamide] registered an IC50 of less than 100 nM.

The compound `Cc1nc(N2CCOCC2)ccc1C(=O)Nc1cc(-c2nc3ccccc3[nH]2)n(C)n1` [Compound A-236] returned an IC50 of 100 to 300 nM.

`O=C(Nc1cc(-c2nc3cccc(F)c3[nH]2)[nH]n1)c1ccc(OCCO)c(Cl)c1` [Compound A-119, 3-chloro-N-[5-(7-fluoro-1H-benzimidazol-2-yl)-1H-pyrazol-3-yl]-4-(2-hydroxyethoxy)benzamide] had an IC50 of 100 to 300 nM.

`O=C(Nc1cc(-c2nc3cc(Br)ccc3[nH]2)[nH]n1)c1ccc(N2CCC(CO)CC2)nc1` [Compound A-89, N-[5-(5-bromo-1H-benzimidazol-2-yl)-1H-pyrazol-3-yl]-6-[4-(hydroxymethyl)-1-piperidyl]pyridine-3-carboxamide] registered an IC50 greater than 1000 nM.

As to `COCCN1CCN(c2ccc(C(=O)Nc3cc(-c4nc5cc(OC)cc(F)c5[nH]4)[nH]n3)cn2)CC1` [Compound A-192, N-[5-(7-fluoro-5-methoxy-1H-benzimidazol-2-yl)-1H-pyrazol-3-yl]-6-[4-(2-methoxyethyl)piperazin-1-yl]pyridine-3-carboxamide], the IC50 is greater than 1000 nM.

The compound `COc1cc(F)c2[nH]c(-c3cc(NC(=O)c4ccc(N5CCN(C6COC6)CC5)cc4)nn3C)nc2c1` [Compound A-219, N-[5-(7-fluoro-5-methoxy-1H-benzimidazol-2-yl)-1-methyl-pyrazol-3-yl]-4-[4-(oxetan-3-yl)piperazin-1-yl]benzamide] came in with an IC50 of less than 100 nM.

`Cn1nc(NC(=O)c2ccc(N3CCC(CO)CC3)nc2)cc1-c1nc2ccccc2[nH]1` [Compound A-96, N-[5-(1H-benzimidazol-2-yl)-1-methyl-pyrazol-3-yl]-6-[4-(hydroxy-methyl)-1-piperidyl]pyridine-3-carboxamide] registered an IC50 of less than 100 nM.

The compound `Cn1nc(NC(=O)c2ccc(N3CCC[C@H]3C(=O)O)nc2)cc1-c1nc2cccc(F)c2[nH]1` [Compound A-155, (2S)-1-[5-[[5-(7-fluoro-1H-benzimidazol-2-yl)-1-methyl-pyrazol-3-yl]carbamoyl]-2-pyridyl]pyrrolidine-2-carboxylic acid] gave an IC50 greater than 1000 nM.

The compound `CN1CCN(c2ccc(C(=O)Nc3cc(-c4nc5ccccc5[nH]4)n(C)n3)cc2)CC1` [Compound A-212, N-[5-(1H-benzimidazol-2-yl)-1-methyl-pyrazol-3-yl]-4-(4-methyl-piperazin-1-yl)benzamide] registered an IC50 of less than 100 nM.

As for `COc1ccc(C(=O)Nc2cc(-c3nc4ccccc4[nH]3)[nH]n2)cc1F` [Compound A-124, N-[5-(1H-benzimidazol-2-yl)-1H-pyrazol-3-yl]-3-fluoro-4-methoxy-benzamide], the IC50 is less than 100 nM.

With `Cn1nc(NC(=O)c2ccc(OCCO)c(Cl)c2)cc1-c1nc2cc(F)ccc2[nH]1` [Compound A-167, 3-chloro-N-[5-(5-fluoro-1H-benzimidazol-2-yl)-1-methyl-pyrazol-3-yl]-4-(2-hydroxyethoxy)benzamide], the IC50 was less than 100 nM.

In turn, `COC1CN(c2cnc(C(=O)Nc3cc(-c4nc5ccccc5[nH]4)[nH]n3)cn2)C1` [Compound A-186, N-[5-(1H-benzimidazol-2-yl)-1H-pyrazol-3-yl]-5-(3-methoxyazetidin-1-yl)pyrazine-2-carboxamide] registered an IC50 greater than 1000 nM.

Consider `COCCn1nc(NC(=O)c2ccc(N3CCN(C)CC3)nc2)cc1-c1nc2ccccc2[nH]1` [Compound A-182, N-[5-(1H-benzimidazol-2-yl)-1-(2-methoxyethyl)pyrazol-3-yl]-6-(4-methyl-piperazin-1-yl)pyridine-3-carboxamide], for which the IC50 lay within 300 to 1000 nM.

The compound `COc1ccc(C(=O)Nc2cc(-c3nc4ccc(OC)c(F)c4[nH]3)[nH]n2)cc1Cl` [Compound A-106, 3-chloro-N-[5-(7-fluoro-6-methoxy-1H-benzimidazol-2-yl)-1H-pyrazol-3-yl]-4-methoxy-benzamide] came in with an IC50 of 100 to 300 nM.

As to `C[C@@H]1CN(c2ccc(C(=O)Nc3cc(-c4nc5ccccc5[nH]4)n(C)n3)cn2)C[C@H](C)N1CCO` [Compound A-278, N-[5-(1H-benzimidazol-2-yl)-1-methyl-pyrazol-3-yl]-6-[(3R,5S)-4-(2-hydroxyethyl)-3,5-dimethyl-piperazin-1-yl]pyridine-3-carboxamide], the IC50 fell in the range of 100 to 300 nM.

Consider `O=C(Nc1cc(-c2nc3cc(Cl)ccc3[nH]2)[nH]n1)c1ccc(N2CCC(CO)CC2)nc1` [Compound A-86, N-[5-(5-chloro-1H-benzimidazol-2-yl)-1H-pyrazol-3-yl]-6-[4-(hydroxymethyl)-1-piperidyl]pyridine-3-carboxamide], for which the IC50 was greater than 1000 nM.

The compound `COC1CN(c2ccc(C(=O)Nc3cc(-c4nc5cccc(F)c5[nH]4)n(C)n3)cn2)C1` [Compound A-137, N-[5-(4-fluoro-1H-benzimidazol-2-yl)-1-methyl-pyrazol-3-yl]-6-(3-methoxyazetidin-1-yl)pyridine-3-carboxamide] came in with a 50% inhibitory concentration (IC50) of 300 to 1000 nM.

The compound `O=C(Nc1cc(-c2nc3cc(F)ccc3[nH]2)[nH]n1)c1ccc(N2CCC(O)CC2)nc1` [Compound A-81, N-[5-(5-fluoro-1H-benzimidazol-2-yl)-1H-pyrazol-3-yl]-6-(4-hydroxy-1-piperidyl)pyridine-3-carboxamide] returned an IC50 of 100 to 300 nM.

`COc1ccc2nc(-c3cc(NC(=O)c4ccc(OC)c(Cl)c4)n[nH]3)cn2c1` [Compound A-161, 3-chloro-4-methoxy-N-[5-(6-methoxyimidazo[1,2-a]pyridin-2-yl)-1H-pyrazol-3-yl]benzamide] yielded an IC50 of 100 to 300 nM.

Compound `COc1cc(F)c2[nH]c(-c3cc(NC(=O)c4ccc(N5CCN(CCO)CC5)nc4)nn3C)nc2c1` [Compound A-211, N-[5-(7-fluoro-5-methoxy-1H-benzimidazol-2-yl)-1-methyl-pyrazol-3-yl]-6-[4-(2-hydroxyethyl)piperazin-1-yl]pyridine-3-carboxamide] displayed an IC50 of 100 to 300 nM.

`Cc1ccc2[nH]c(-c3cc(NC(=O)c4ccc(OCCO)c(Cl)c4)n[nH]3)nc2c1` [Compound A-115, 3-chloro-4-(2-hydroxyethoxy)-N-[5-(5-methyl-1H-benzimidazol-2-yl)-1H-pyrazol-3-yl]benzamide]: the IC50 is less than 100 nM.

The compound `Cn1nc(NC(=O)c2ccc(N3CCNC(=O)C3)nc2)cc1-c1nc2ccccc2[nH]1` [Compound A-221, N-[5-(1H-benzimidazol-2-yl)-1-methyl-pyrazol-3-yl]-6-(3-oxopiperazin-1-yl)pyridine-3-carboxamide] gave an IC50 of 300 to 1000 nM.

`COCCOc1ccc(C(=O)Nc2cc(-c3nc4ccccc4[nH]3)[nH]n2)cc1C#N` [Compound A-129, N-[5-(1H-benzimidazol-2-yl)-1H-pyrazol-3-yl]-3-cyano-4-(2-methoxyethoxy)benzamide] came in with an IC50 of 100 to 300 nM.

In turn, `Cn1nc(NC(=O)c2ccc(N3CCO[C@@H](CO)C3)nc2)cc1-c1nc2ccccc2[nH]1` [Compound A-248, N-[5-(1H-benzimidazol-2-yl)-1-methyl-pyrazol-3-yl]-6-[(2R)-2-(hydroxymethyl)morpholin-4-yl]pyridine-3-carboxamide] registered an IC50 of less than 100 nM.

`Cn1nc(NC(=O)c2ccc(OC3COC3)c(Cl)c2)cc1-c1nc2ccccc2[nH]1` [Compound A-252, N-[5-(1H-benzimidazol-2-yl)-1-methyl-pyrazol-3-yl]-3-chloro-4-(oxetan-3-yloxy)benzamide]: the IC50 is less than 100 nM.

Consider `CC(=O)N1CCN(c2ccc(C(=O)Nc3cc(-c4nc5ccccc5[nH]4)n(C)n3)cn2)CC1` [Compound A-226, 6-(4-acetylpiperazin-1-yl)-N-[5-(1H-benzimidazol-2-yl)-1-methyl-pyrazol-3-yl]pyridine-3-carboxamide], for which the IC50 is 100 to 300 nM.

In the case of `COc1ccc(C(=O)Nc2cc(-c3nc4ccccc4[nH]3)no2)cc1Cl` [Compound A-30, N-[3-(1H-benzimidazol-2-yl)isoxazol-5-yl]-3-chloro-4-methoxy-benzamide], the IC50 was greater than 1000 nM.

Turning to `O=C(Nc1cc(-c2nc3ccccc3[nH]2)[nH]n1)c1ccc(N2CCC(C(=O)O)CC2)nc1` [Compound A-51, ammonium 1-[5-[[5-(1H-benzimidazol-2-yl)-1H-pyrazol-3-yl]carbamoyl]-2-pyridyl]piperidine-4-carboxylate], the IC50 was greater than 1000 nM.

Consider `COCCN1CCN(c2ccc(C(=O)Nc3cc(-c4nc5ccccc5[nH]4)n(CCOC)n3)cn2)CC1` [Compound A-178, N-[5-(1H-benzimidazol-2-yl)-1-(2-methoxyethyl)pyrazol-3-yl]-6-[4-(2-methoxyethyl)piperazin-1-yl]pyridine-3-carboxamide], for which the IC50 fell in the range of 300 to 1000 nM.
